Test system: 435261-313-R-J1-PDC complex spheroid viability
Test: Anticancer human tumor 435261-313-R-J1-PDC patient-derived colon adenocarcinoma cell line growth inhibition [GQUAD]
Conditions: for IC50: curve of first compound; for viability, T/C: stronger effect = lower value; active = viability on the fitted dose curve at most 10% of control; inactive = the rest
Text: DNA G-quadruplex Stabilizer Agents in Combinations in Complex Spheroids
A high-throughput screen of multi-cell type tumor spheroids was designed to identify active combinations of DNA G-quadruplex stabilizer agents and targeted small molecules. Complex spheroids include a stromal component modeled by human endothelial cells (HUVEC) and fibroblasts modeled by human mesenchymal stem cells (MSCs). The concentration ranges selected for each drug and investigational agent were based upon clinically achievable concentrations if the clinical Cmax of the agent was known.
Compounds. The drugs and investigational agents: pidnarulex (CX-5461; NSC782164), APTO-253 (NSC789042), BRACO-19 (NSC847499), peposertib (NSC802822), ceralasertib (NSC780249), elimusertib (NSC800525), camonsertib (NSC841442), AZD-1390 (NSC803789), olaparib (NSC753686), talazoparib (NSC767125), ART-558 (NSC835418), sotorasib (NSC818433), MRTX-1133 (NSC836407), SN-38 (NSC673596), topotecan (NSC609699), etoposide (NSC141540), doxorubicin (NSC123127), gemcitabine (NSC613327), 5-fluorouracil (NSC19893), paclitaxel (NSC125973), vemurafenib (NSC761431), panobinostat (NSC761190), R-306465 (JNJ-16241199; NSC773264), adavosertib (NSC754352), TP-3654 (NSC805149), carboplatin (NSC241240), KSQ-4279 (NSC840948), and staurosporine (NSC755774) were obtained from the National Cancer Institute (NCI) Developmental Therapeutics Program Chemical Repository (34). The FDA-approved anticancer drug set is available from the NCI Developmental Therapeutics Program. […] The stock solutions were prepared in dimethyl sulfoxide (DMSO, Sigma-Aldrich, St. Louis, MO, cat. D2650) at 800-fold the tested concentration and stored at -70 degrees C prior to their use. All drugs and investigational agents were tested over a range starting from a high concentration at or near the clinical Cmax and decreasing in half-log increments. If the clinical Cmax for an agent had not been determined, the highest concentration tested was 10 microM.
2.3 Cell Culture. All cells were maintained in an incubator at 37 degrees C and 5% CO2 with 95% humidity. The PDC lines were cultured according to standard operating procedures established by the NCI PDMR. All PDCs were thawed and cultured in Matrigel-coated flasks prepared with a working solution of 1X Ham's F-12 nutrient mix, without supplementation (Invitrogen, cat. 11765054), 100 U/mL penicillin-streptomycin (Invitrogen, cat. 15140122), and 2.5% Matrigel (Corning Inc., cat. 354248) for the first three passages. The 857933-349-R-J2-PDC line was cultured in 6C/Colon 1B media, which includes advanced DMEM/F-12 (Thermo Fisher Scientific, cat. 12634028), 10 mM HEPES (Thermo Fisher Scientific, cat. 15630080), 1X GlutaMAX supplement (Thermo Fisher Scientific, cat. 35050061), 0.1 mg/mL primocin (InvivoGen, cat. ant-pm-2), 10% defined fetal bovine serum, heat inactivated (HyClone Laboratories Inc., cat. SH30070.03HI), 50% L-WRN conditioned media (ATCC, cat. CRL-3276), 1.25 mM N-Acetyl-L-cysteine (Sigma-Aldrich, cat. A9165), 10 mM nicotinamide (Sigma-Aldrich, cat. N0636), 1X B-27 supplement (Thermo Fisher Scientific, cat. 17504044), 1X N-2 supplement (Thermo Fisher Scientific, cat. 17502048), 10 microM Y-27632 dihydrochloride (Tocris Bioscience, cat. 1254), and 50 ng/mL human EGF recombinant protein (Thermo Fisher Scientific, cat. PHG0311). The 485176-168-R4-J1-PDC line was cultured in Panc media, which includes all 6C/Colon 1B media components plus 100 ng/mL human FGF-10 (Thermo Fisher Scientific, cat. 100-26), 500 nM SB-431542 (Selleckchem, cat. S1067), and gastrin (Tocris, cat. 3006).
[…]

[1] = second compound 0.0316 µM, first compound 0.0316 µM
[2] = second compound 0.0316 µM, first compound 0.1 µM
[3] = second compound 0.0316 µM, first compound 0.316 µM
[4] = second compound 0.0316 µM, first compound 1 µM
[5] = second compound 0.0316 µM, first compound 3.16 µM
[6] = second compound 0.0316 µM, first compound 10 µM
[7] = second compound 0.1 µM, first compound 0.0316 µM
[8] = second compound 0.1 µM, first compound 0.1 µM
[9] = second compound 0.1 µM, first compound 0.316 µM
[10] = second compound 0.1 µM, first compound 1 µM
[11] = second compound 0.1 µM, first compound 3.16 µM
[12] = second compound 0.1 µM, first compound 10 µM
[13] = second compound 0.316 µM, first compound 0.0316 µM
[14] = second compound 0.316 µM, first compound 0.1 µM
[15] = second compound 0.316 µM, first compound 0.316 µM
[16] = second compound 0.316 µM, first compound 1 µM
[17] = second compound 0.316 µM, first compound 3.16 µM
[18] = second compound 0.316 µM, first compound 10 µM
[19] = second compound 1 µM, first compound 0.0316 µM
[20] = second compound 1 µM, first compound 0.1 µM
[21] = second compound 1 µM, first compound 0.316 µM
[22] = second compound 1 µM, first compound 1 µM
[23] = second compound 1 µM, first compound 3.16 µM
[24] = second compound 1 µM, first compound 10 µM
[25] = second compound 3.16 µM, first compound 0.0316 µM
[26] = second compound 3.16 µM, first compound 0.1 µM
[27] = second compound 3.16 µM, first compound 0.316 µM
[28] = second compound 3.16 µM, first compound 1 µM
[29] = second compound 3.16 µM, first compound 3.16 µM
[30] = second compound 3.16 µM, first compound 10 µM
[31] = second compound 10 µM, first compound 0.0316 µM
[32] = second compound 10 µM, first compound 0.1 µM
[33] = second compound 10 µM, first compound 0.316 µM
[34] = second compound 10 µM, first compound 1 µM
[35] = second compound 10 µM, first compound 3.16 µM
[36] = second compound 10 µM, first compound 10 µM
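Note: spheroids exposed to the agents for seven days before readout.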
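Throughout, for viability, T/C: percent of vehicle control viability with DMSO wells as 100%.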

CC(=O)O[C@H]1C(=O)[C@@]2(C)[C@H]([C@H](OC(=O)c3ccccc3)[C@]3(O)C[C@H](OC(=O)[C@H](O)[C@@H](NC(=O)c4ccccc4)c4ccccc4)C(C)=C1C3(C)C)[C@]1(OC(C)=O)CO[C@@H]1C[C@@H]2O + Cc1[nH]c2ccc(F)cc2c1-c1nc2c3cccnc3c3ncccc3c2[nH]1
> 10000 nM: IC50 (second compound 0.0316 µM) | IC50 (second compound 0.1 µM) | IC50 (second compound 0.316 µM)
< 31.6 nM: IC50 (second compound 1 µM) | IC50 (second compound 3.16 µM) | IC50 (second compound 10 µM)
inactive: viability, T/C [1] 67.5% | viability, T/C [2] 71.4% | viability, T/C [3] 74.7% | viability, T/C [4] 65.8% | viability, T/C [5] 63.8% | viability, T/C [6] 76.8% | viability, T/C [7] 83.2% | viability, T/C [8] 78.5% | viability, T/C [9] 78.1% | viability, T/C [10] 57.8% | viability, T/C [11] 69.2% | viability, T/C [12] 71% | viability, T/C [13] 63.4% | viability, T/C [14] 66.2% | viability, T/C [15] 52.5% | viability, T/C [16] 48.9% | viability, T/C [17] 51% | viability, T/C [18] 60% | viability, T/C [19] 41.5% | viability, T/C [20] 48.1% | viability, T/C [21] 53% | viability, T/C [22] 46.4% | viability, T/C [23] 47.2% | viability, T/C [24] 42.2% | viability, T/C [25] 41.6% | viability, T/C [26] 40.8% | viability, T/C [27] 40.1% | viability, T/C [28] 24.6% | viability, T/C [29] 29% | viability, T/C [30] 29.1% | viability, T/C [31] 25.7% | viability, T/C [32] 32.3% | viability, T/C [33] 26.7% | viability, T/C [34] 24.4% | viability, T/C [35] 21.9% | viability, T/C [36] 28%

CC1COCCN1c1cc(C2(S(C)(=N)=O)CC2)nc(-c2ccnc3[nH]ccc23)n1 (centres undefined) + Cc1[nH]c2ccc(F)cc2c1-c1nc2c3cccnc3c3ncccc3c2[nH]1
inactive: viability, T/C [1] 111% | viability, T/C [2] 85.9% | viability, T/C [3] 107% | viability, T/C [4] 60.5% | viability, T/C [5] 66% | viability, T/C [6] 52.2% | viability, T/C [7] 93% | viability, T/C [8] 106% | viability, T/C [9] 90.5% | viability, T/C [10] 83.7% | viability, T/C [11] 80.2% | viability, T/C [12] 55.4% | viability, T/C [13] 94.2% | viability, T/C [14] 127% | viability, T/C [15] 74.8% | viability, T/C [16] 106% | viability, T/C [17] 50.1% | viability, T/C [18] 47.9% | viability, T/C [19] 54.4% | viability, T/C [20] 65.6% | viability, T/C [21] 68% | viability, T/C [22] 52.6% | viability, T/C [23] 36.4% | viability, T/C [24] 30% | viability, T/C [25] 29.6% | viability, T/C [26] 37.1% | viability, T/C [27] 30.3% | viability, T/C [28] 28.9% | viability, T/C [29] 21.6% | viability, T/C [30] 12.2% | viability, T/C [31] 30.7% | viability, T/C [32] 22.6% | viability, T/C [33] 28.1% | viability, T/C [34] 18.4% | viability, T/C [35] 14.9% | viability, T/C [36] 8.85%
> 10000 nM: IC50 (second compound 0.0316 µM) | IC50 (second compound 0.1 µM)
3270 nM: IC50 (second compound 0.316 µM)
< 31.6 nM: IC50 (second compound 3.16 µM) | IC50 (second compound 10 µM)
1280 nM: IC50 (second compound 1 µM)

From PubChem BioAssay AID2060494 (Molecular Pharmacology Branch, DTP, NCI, 2025)
